This is an account of results in patent US20260242419A1, “A CYCLIC PEPTIDE FOR TRAPPING INTERLEUKIN-1 BETA” (Merck Sharp & Dohme LLC, priority 2023, published 2026).

Starred links: 1 amine or outer side, 2 acyl side, 3 side chain; linkers in the order of their positions; H or OH if unused. Non-standard residues stand in square brackets, D forms with d. Residues, ends and D or L forms follow the SMILES beside them. Trp(βS-Me,4-F) = C[C@@H](c1c[nH]c2cccc(F)c12)[C@H](N)C(=O)O; Bip(4'-COOH) = N[C@@H](Cc1ccc(-c2ccc(C(=O)O)cc2)cc1)C(=O)O; dPro(4R-Bzl(4-F)) = O=C(O)[C@H]1C[C@@H](Cc2ccc(F)cc2)CN1; X5 = O=C([C@H]1C[C@@H](Cc2ccccc2)CN1[*:1])[*:2]; Ala(pyrimidin-5-yl) = N[C@@H](Cc1cncnc1)C(=O)O; Phe(4-COOH) = N[C@@H](Cc1ccc(C(=O)O)cc1)C(=O)O; Pro(cis-4-F) = O=C(O)[C@@H]1C[C@H](F)CN1; 4Pal = N[C@@H](Cc1ccncc1)C(=O)O; Dab = NCC[C@H](N)C(=O)O; Aib = CC(C)(N)C(=O)O

In the assay the target is T1, IL-1β (Homo sapiens, UniProt P01584).
T1 construct: purchased BioLegend 579404
T1 sequence (P01584 117-269): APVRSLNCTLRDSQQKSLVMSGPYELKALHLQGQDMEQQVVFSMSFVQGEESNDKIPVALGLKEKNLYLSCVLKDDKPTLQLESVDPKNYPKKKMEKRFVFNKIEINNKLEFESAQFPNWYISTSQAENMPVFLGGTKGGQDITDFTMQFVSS
In words: IL-6 assay in MRC5 cells: inhibition of IL-1β induced IL-6 secretion (AlphaLISA). The format is cell-based. The following applies: inhibition of IL-1β induced IL-6 secretion in MRC5 cells; read-out: MRC5 IC50. The method, then:
Procedure for IL-6 Assay in MRC5 Cells
The inhibition of IL-1β induced IL-6 secretion was evaluated in MRC5 cells. Recombinant human IL-1β (BioLegend 579404) at 2λ EC80 concentration was prepared in seeding medium. EMEM (ATCC 30-2003) with 0.025% BSA (Sigma A9576), 1×penicillin/streptomycin (Gibco 15070-063), 1×NEAA (Gibco 11140-050), 1×GlutaMax (Gibco 35050-061), and 1×sodium pyruvate (Gibco 11360-070), 20 μL of IL-1β was added to a 384-well collagen-coated plate (Corning 354664) and pre-incubated at ambient temperature for 1 hour with 200 nL of compound dispensed using an ECHO 555 liquid handler. Human lung fibroblast MRC5 cells (ATCC CCL-171) were added at a density of 3000 cells/20 μL per well. The cells were prepared by passaging three times in growth medium, EMEM (ATCC 30-2003) with 10% fetal bovine serum (Gibco 16140-071), 1×penicillin/streptomycin (Gibco 15070-063), 1×NEAA (Gibco 11140-050), 1×GlutaMax (Gibco 35050-061), and 1×sodium pyruvate (Gibco 11360-070) in collagen-coated T175 flasks (Greiner 661950) and harvested in seeding medium after 5 minutes of 0.25% trypsin-EDTA (Gibco 25200-056) digestion. The 384-well collagen-coated plate, containing a final volume of 40 μL, was incubated at 37° C., 5% CO2 overnight. 5 μL of the conditioned medium was transferred to a 384-well AlphaLISA plate (PerkinElmer 6005350) for detection of IL-6 using the human AlphaLISA IL-6 kit (PerkinElmer AL223F) as per the manufacturer's protocol. 20 μL of the acceptor bead/biotinylated antibody mix was added to the 384-well AlphaLISA plate and incubated for 1 hour at ambient temperature. The donor bead mix was protected from light and 25 μL was added to the plate and incubated for 30 minutes at ambient temperature. The AlphaLISA plate was read on an EnVision multimode plate reader (Perkin Elmer model 2104) using the AlphaScreen setting (laser exc at 680 nm and emis at […]). Dose response curves and IC50 values were analyzed using a 4-parameter logistic equation in Spotfire software (Tibco, Palo Alto, CA).
Regarding `C[C@@H](c1c[nH]c2cccc(F)c12)[C@@H]1NC(=O)[C@@H]2C[C@H](F)CN2C(=O)CNC(=O)[C@H](Cc2ccc(C(=O)O)cc2)NC(=O)[C@H](Cc2ccncc2)NC(=O)[C@H](Cc2ccc(-c3ccc(C(=O)O)cc3)cc2)NC(=O)[C@H]2C[C@@H](Cc3ccccc3)CN2C(=O)CNC(=O)[C@H](CCN)NC(=O)[C@H](CCC(N)=O)NC(=O)[C@H](Cc2cncnc2)NC(=O)C(C)(C)NC(=O)[C@H](Cc2c[nH]c3ccccc23)NC(=O)[C@H](CCC(=O)O)NC(=O)C(C)(C)NC1=O` [Example 29] (cyclo([Bip(4'-COOH)][4Pal][Phe(4-COOH)]G[Pro(cis-4-F)][Trp(βS-Me,4-F)][Aib]EW[Aib][Ala(pyrimidin-5-yl)]Q[Dab]G[X5])), the IC50 – broadly, the concentration at which inhibition is half-maximal – is 19 pM. For `C[C@@H](c1c[nH]c2cccc(F)c12)[C@@H]1NC(=O)[C@@H]2C[C@H](F)CN2C(=O)CNC(=O)[C@H](Cc2ccc(C(=O)O)cc2)NC(=O)[C@H](Cc2ccncc2)NC(=O)[C@H](Cc2ccc(-c3ccc(C(=O)O)cc3)cc2)NC(=O)[C@H]2C[C@@H](Cc3ccccc3)CN2C(=O)CNC(=O)[C@H](CO)NC(=O)[C@H](CCC(N)=O)NC(=O)[C@H](Cc2cncnc2)NC(=O)C(C)(C)NC(=O)[C@H](Cc2c[nH]c3ccccc23)NC(=O)[C@H](CCC(=O)O)NC(=O)C(C)(C)NC1=O` [Example 30] (cyclo([Bip(4'-COOH)][4Pal][Phe(4-COOH)]G[Pro(cis-4-F)][Trp(βS-Me,4-F)][Aib]EW[Aib][Ala(pyrimidin-5-yl)]QSG[X5])) the value was 26 pM.

For `C[C@@H](c1c[nH]c2cccc(F)c12)[C@@H]1NC(=O)[C@@H]2C[C@H](F)CN2C(=O)CNC(=O)[C@H](Cc2ccc(C(=O)O)cc2)NC(=O)[C@H](Cc2ccncc2)NC(=O)[C@H](Cc2ccc(-c3ccc(C(=O)O)cc3)cc2)NC(=O)[C@H]2C[C@@H](Cc3ccccc3)CN2C(=O)CNC(=O)[C@H](CCN)NC(=O)[C@H](CCC(N)=O)NC(=O)[C@H](Cc2cncnc2)NC(=O)C(C)(C)NC(=O)[C@H](Cc2c[nH]c3ccccc23)NC(=O)[C@H](CCC(=O)O)NC(=O)C(C)(C)NC1=O` [Example 31] (cyclo([Bip(4'-COOH)][4Pal][Phe(4-COOH)]G[Pro(cis-4-F)][Trp(βS-Me,4-F)][Aib]EW[Aib][Ala(pyrimidin-5-yl)]Q[Dab]G[X5])), the IC50 turned out to be 24 pM.

Take `C[C@@H](c1c[nH]c2cccc(F)c12)[C@@H]1NC(=O)[C@@H]2C[C@H](F)CN2C(=O)CNC(=O)[C@H](Cc2ccc(C(=O)O)cc2)NC(=O)[C@H](Cc2ccncc2)NC(=O)[C@H](Cc2ccc(-c3ccc(C(=O)O)cc3)cc2)NC(=O)[C@H]2C[C@@H](Cc3ccc(F)cc3)CN2C(=O)CNC(=O)[C@H](CO)NC(=O)[C@H](CCC(N)=O)NC(=O)[C@H](CCCNC(=N)N)NC(=O)C(C)(C)NC(=O)[C@H](Cc2c[nH]c3ccccc23)NC(=O)[C@H](CCC(=O)O)NC(=O)C(C)(C)NC1=O` [Example 32] (cyclo([Bip(4'-COOH)][4Pal][Phe(4-COOH)]G[Pro(cis-4-F)][Trp(βS-Me,4-F)][Aib]EW[Aib]RQSG[dPro(4R-Bzl(4-F))])): the half-maximal inhibitory concentration (IC50) was found to be 49 pM.

As to `C[C@@H](c1c[nH]c2cccc(F)c12)[C@@H]1NC(=O)[C@@H]2C[C@H](F)CN2C(=O)CNC(=O)[C@H](Cc2ccc(C(=O)O)cc2)NC(=O)[C@H](Cc2ccncc2)NC(=O)[C@H](Cc2ccc(-c3ccc(C(=O)O)cc3)cc2)NC(=O)[C@H]2C[C@@H](Cc3ccc(F)cc3)CN2C(=O)CNC(=O)[C@H](CCN)NC(=O)[C@H](CCC(N)=O)NC(=O)[C@H](CCCNC(=N)N)NC(=O)C(C)(C)NC(=O)[C@H](Cc2c[nH]c3ccccc23)NC(=O)[C@H](CCC(=O)O)NC(=O)C(C)(C)NC1=O` [Example 33] (cyclo([Bip(4'-COOH)][4Pal][Phe(4-COOH)]G[Pro(cis-4-F)][Trp(βS-Me,4-F)][Aib]EW[Aib]RQ[Dab]G[dPro(4R-Bzl(4-F))])), the concentration for half-maximal inhibition (IC50) stood at 33 pM.
